Results as given in patent US12630536B2, “Cyanotriazine derivative, preparation method therefor, and application thereof” (Chengdu Fanxi Biopharma Co., LTD., priority 2020, dated 2026).
pEC50: −log10 of the molar value.

Tests used:
[1] = system: TR alpha-UAS-bla HEK 293T Cells; experiment: TR cell-based agonist detection, β-lactamase reporter (LiveBLAzer FRET B/G), TR alpha
Experimental: (§1) A method for testing a THR-α/β activation activity of a compound by an in-vitro cell level was as follows.
(§2) Compounds were transferred to a 384-well plate by an ECHO liquid workstation, and each compound was diluted by 3 times with 10 gradient concentrations, which was in triplicate. 1.5×10^4 DMEM-cultured cells (TR beta-UAS-bla HEK 293T Cells) or 1.0×10^4 TR alpha-UAS-bla HEK 293T Cells were placed in the 384-well plate. HEK 293T-TR beta was incubated in an incubator for 16 hours, and HEK 293T-TR alpha was incubated in an incubator for 24 hours. A LiveBLAzer™-FRET B/G (CCF4-AM) substrate was added into the cell plate to detect expression of β-lactamase in cells, and under excitation of 409 nm, a product produced fluorescence with a wavelength of 447 nm. When the β-lactamase was not expressed, under excitation of 409 nm, fluorescence with a wavelength of 520 nm was directly produced through FRET. Combination between the compound and the protein was determined by detecting a ratio of the two kinds of fluorescence (blue/green, 460 nm/530 nm), thus calculating EC50 of the compound. […] Calculation of a factor Z (greater than 0.5) would be used for monitoring a stability of each experiment.

[2] = system: TR beta-UAS-bla HEK 293T Cells; experiment: TR cell-based agonist detection, β-lactamase reporter (LiveBLAzer FRET B/G), TR beta
Experimental: as §1, §2

In the case of `Cn1cnc2ccc(Oc3c(Br)cc(-n4nc(C#N)c(=O)[nH]c4=O)cc3Br)cc21` [Compound 1, 2-(3,5-dibromo-4-((1-methyl-1H-benzo[d]imidazol-6-yl)oxy)phenyl)-3,5-dioxo-2,3,4,5-tetra hydro-1,2,4-triazine-6-carbonitrile], the Emax ([1]; Homo sapiens, HEK-293T, 24 h, TR_cell-based agonist, TR_α, read-out: Maximum activity ratio) was 205%, the pEC50 ([1]; Homo sapiens, Detection of TR_cell-based agonist, HEK 293T-TR alpha, 24 hours, read-out: TR_α_EC50) was 5.36 and the “Test cpd/T3 (maximum ratio)” value ([1]; TR_cell-based agonist, TR_α, maximum relative to T3) was 93.2%. The Emax ([2]; Homo sapiens, HEK-293T, 16 h, TR_cell-based agonist, TR_β, read-out: Maximum activity ratio (A460/A530)) was 41.1%, the pEC50 ([2]; Homo sapiens, Detection of TR_cell-based agonist, HEK 293T-TR beta, 16 hours, read-out: TR_β_EC50) was 6.24 and the “Measurement of cpd/T3 (maximum ratio)” value ([2]; TR_cell-based agonist, TR_β, maximum relative to T3) was 7.5%. It also gave a α/β ([2]; TR_cell-based agonist, ratio TR_α EC50 / TR_β EC50) of 7.49.
